Residue numbers refer to the chain shown, from its start. Where no end group is shown, it is not given here.

This note sets out measurements from PMC5908784, “Extracellular loops 2 and 3 of the calcitonin receptor selectively modify agonist binding and efficacy” (Biochemical Pharmacology, 2018).

Holding throughout (assay): Homologous whole cell competition binding
What all share (details): homologous competition of 125I-sCT(8-32), whole cells, mean ± S.E.M., SEM

For one experiment, the target named is T1, hCTR E294A (Homo sapiens, UniProt P30988, E294A).
T1 construct: c-Myc (N); expressed in transfected cells
T1 sequence (P30988 25-474 E294A): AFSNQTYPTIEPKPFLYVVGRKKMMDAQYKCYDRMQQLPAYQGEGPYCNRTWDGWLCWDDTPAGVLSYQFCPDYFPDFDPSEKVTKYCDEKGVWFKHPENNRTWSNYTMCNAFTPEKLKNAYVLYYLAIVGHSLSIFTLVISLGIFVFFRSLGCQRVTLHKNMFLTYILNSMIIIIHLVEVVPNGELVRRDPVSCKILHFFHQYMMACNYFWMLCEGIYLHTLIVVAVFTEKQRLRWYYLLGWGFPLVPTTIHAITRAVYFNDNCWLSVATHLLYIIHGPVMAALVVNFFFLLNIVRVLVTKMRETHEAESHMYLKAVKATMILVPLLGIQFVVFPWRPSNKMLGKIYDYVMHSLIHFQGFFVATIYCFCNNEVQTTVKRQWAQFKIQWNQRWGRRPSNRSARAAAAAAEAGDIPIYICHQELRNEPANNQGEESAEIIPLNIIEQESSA
The essentials:
(§1)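 Cells were seeded, cultured overnight, then exposed overnight at 4 °C to two concentrations of ^125I-sCT(8-32) with increasing unlabelled sCT(8-32). Unbound ligand was washed off before counting. Affinity is given as pKi after radioligand occupancy correction.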

The next experiment has as its target T2, hCTR F356A (Homo sapiens, UniProt P30988, F356A).
T2 construct: c-Myc (N); expressed in transfected cells
T2 sequence (P30988 25-474 F356A): T1 sequence (P30988 25-474 E294A) with A270E, F332A
Put shortly: as §1

A further experiment concerns the target T3, hCTR V357A (Homo sapiens, UniProt P30988, V357A).
T3 construct: c-Myc (N); expressed in transfected cells
T3 sequence (P30988 25-474 V357A): T1 sequence (P30988 25-474 E294A) with A270E, V333A
Put shortly: as §1

The next experiment has as its target T4, hCTR T280A (Homo sapiens, UniProt P30988, T280A).
T4 construct: expressed in transfected cells
T4 sequence (P30988 25-474 T280A): T1 sequence (P30988 25-474 E294A) with T256A, A270E
The essentials: as §1

As to “VLGKLSQELHKLQTYPRTNTGSGTP-NH2 [sCT(8-32)]”, the inhibition constant (Ki) is 263 pM on hCTR E294A, 141 pM at hCTR F356A, 209 pM on hCTR V357A and 245 pM on hCTR T280A.
